Results published in US20260250318A1, “COMPOSITIONS AND METHODS FOR CROSSING THE BLOOD BRAIN BARRIER” (VOYAGER THERAPEUTICS, INC., priority 2022, published 2026).

Legend:
[1] = test system: brain; test: Matured TTM-001 and TTM-002 variants, NGS enrichment in mouse brain; type: in vivo, mice; details: relative to AAV9 control
[2] = test system: brains, heart, liver, muscle, and DRG of the NHPs; test: Maturation of TTM-001 and TTM-002 capsids, NGS enrichment in NHP tissues; type: in vivo; details: relative to AAV9 control
Method in brief: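 Variants carry mutations within and flanking the loop IV peptide insert: positions 450–466 were triplet-randomized, while positions 449–466 received low-frequency point mutations. The combined pool went into two NHPs, and each peptide was scored by NGS enrichment ratio against AAV9.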

[3] = NGS fold-enrichment, brain of mice
[4] = NGS fold-enrichment, DRG of NHPs
[5] = NGS fold-enrichment, RNA, brain of NHPs
[6] = NGS fold-enrichment, heart of NHPs
[7] = NGS fold-enrichment, liver DNA of NHPs
[8] = NGS fold-enrichment, liver RNA of NHPs
[9] = NGS fold-enrichment, muscle of NHPs
[10] = NGS fold-enrichment, mouse brain
[11] = NGS fold-enrichment of RNA, NHP brain
[12] = NGS fold-enrichment, NHP liver DNA
[13] = NGS fold-enrichment, NHP liver RNA
[14] = NGS fold-enrichment, NHP muscle
[15] = NGS fold-enrichment of matured AAV capsid variants, NHP brain, RNA

Sequence	Fold Enrichment relative to AAV9, Brain (Mouse) [1, 3] [fold]	Fold Enrichment relative to AAV9, DRG (NHP) [2, 4] [fold]	Fold Enrichment relative to AAV9, Brain (NHP) [2, 5] [fold]	Fold Enrichment relative to AAV9, Heart (NHP) [2, 6] [fold]	Fold Enrichment relative to AAV9, Liver DNA (NHP) [2, 7] [fold]	Fold Enrichment relative to AAV9, Liver RNA (NHP) [2, 8] [fold]	Fold Enrichment relative to AAV9, Muscle (NHP) [2, 9] [fold]	Fold Enrichment relative to AAV9, Brain (Mouse) [1, 10] [fold]	Fold Enrichment relative to AAV9, Brain (NHP) [2, 11] [fold]	Fold Enrichment relative to AAV9, DRG (NHP) ([2]; NGS fold-enrichment, NHP DRG) [fold]	Fold Enrichment relative to AAV9, Heart (NHP) ([2]; NGS fold-enrichment, NHP heart) [fold]	Fold Enrichment relative to AAV9, Liver DNA (NHP) [2, 12] [fold]	Fold Enrichment relative to AAV9, Liver RNA (NHP) [2, 13] [fold]	Fold Enrichment relative to AAV9, Muscle (NHP) [2, 14] [fold]	Fold Enrichment relative to AAV9, Brain (Mouse) ([1]; mouse brain) [fold]	Fold Enrichment relative to AAV9, Brain (NHP) [2, 15] [fold]	Fold Enrichment relative to AAV9, DRG (NHP) ([2]; NHP DRG) [fold]	Fold Enrichment relative to AAV9, Heart (NHP) ([2]; NHP heart) [fold]	Fold Enrichment relative to AAV9, Liver DNA (NHP) ([2]; NHP liver, DNA) [fold]	Fold Enrichment relative to AAV9, Liver RNA (NHP) ([2]; NHP liver, RNA) [fold]	also measured
KTINGSGSPHSKAQERPT	57.506	0.000	63.460	0.011	0.173	0.810	0.000														
KTINGSGSPHSKGQNPPT	134.808	0.000	72.339	0.206	0.041	0.000	0.000														
KTINGHDSPHKIGQNQHA								7.578	77.321	0.000	18.836	0.132	0.220	0.028							
KTINGSGSPHSKAQSAHT															79.498	51.569	0.068	0.070	0.249	0.589	Fold Enrichment relative to AAV9, Muscle (NHP) ([2]; NHP muscle): 0.000 fold
KTINGSGSPHSKAQSVHT															76.110	53.226	0.000	0.004	0.217	0.446	Fold Enrichment relative to AAV9, Muscle (NHP) ([2]; NHP muscle): 0.000 fold
KTEHLSGSPHSKAQNQQT	69.494	0.000	83.080	0.000	0.189	0.021	0.012	69.494	83.080	0.000	0.000	0.189	0.021	0.012							
KTFKGSGSPHSKAPNQQT	71.144	0.000	80.890	0.000	0.017	0.000	0.000	71.144	80.890	0.000	0.000	0.017	0.000	0.000							
KTVNGSGSPHSKAQNQLI	71.156	0.000	80.509	0.000	0.166	0.000	0.000	71.156	80.509	0.000	0.000	0.166	0.000	0.000							
KTELRHDSPHKSGQNQQT								6.588	98.098	0.000	0.019	0.007	0.000	0.000							
KTINGSGSPHSKAQKVIT															95.147	53.273	0.000	0.000	0.402	0.357	Fold Enrichment relative to AAV9, Muscle (NHP) ([2]; NHP muscle): 0.000 fold
KTFNGSGSPHNKAQNHQT	67.757	0.000	64.060	0.000	0.317	0.094	0.035														
KSLNGSGSPHTKAQNQQT								45.140	81.515	0.197	0.333	0.085	0.000	0.000							
KTINGSGSPHSKRPEQQT	50.319	0.000	80.418	0.013	0.361	0.149	0.000	50.319	80.418	0.000	0.013	0.361	0.149	0.000							
KTINGSGSPHSKAQGILT															102.631	58.418	0.000	0.005	0.192	0.569	Fold Enrichment relative to AAV9, Muscle (NHP) ([2]; NHP muscle): 0.010 fold
KTINKEGSPHSKAQNQQT															64.520	53.006	0.000	0.029	0.111	0.177	Fold Enrichment relative to AAV9, Muscle (NHP) ([2]; NHP muscle): 0.000 fold
